Experimental data as given in patent publication US20140255518A1, “Treatment and Prevention of Gastrointestinal Syndrome” (THOMAS JEFFERSON UNIVERSITY HOSPITALS, INC., priority 2011, published 2014).
Read-outs that look alike come from different tables or passages of the source. No end group written: not given here.

Columns and labels:
[1] = system: HCT116 cells (P53 wildtype); assay: IR-induced cell death after cGMP preconditioning, HCT116 (P53 wildtype); assay type: cell-based, human; details: HCT116 cells (P53 wildtype) preconditioned with cGMP; FIG. 3 (A)
Description: (§1) Experiments were performed to show the requirement of GCC activation in the protection of small intestine and colon cells from apoptosis and genotoxic induced cell death. The role of activation of GCC and of the presence of p53 was also evaluated. Test on cancer cells were performed to compare the protection by cGMP of colon cancer cells from cell death in compared to cGMP's potentiation of cell death in other cancers.

[2] = system: HCT116P53−/− cells (P53 null); assay: IR-induced cell death after cGMP preconditioning, HCT116 P53 null; assay type: cell-based, human; details: HCT116P53−/− cells (P53 null) preconditioned with cGMP; FIG. 3 (B)
Description: as §1

human colon cells = assay: Cell death after irinotecan (CPT11) challenge, human colon cells; assay type: cell-based; details: irinotecan (CPT11, 100 μM)
Description: as §1

[3] = system: human breast cancer cells; assay: CPT11-induced cell death after cGMP preconditioning, breast cancer cells; assay type: cell-based; details: cGMP precondition
Description: as §1

human liver cancer cells = assay: CPT11-induced cell death after cGMP preconditioning, liver cancer cells; assay type: cell-based; details: cGMP precondition
Description: as §1

[4] = system: human prostate cancer cells; assay: CPT11-induced cell death after cGMP preconditioning, prostate cancer cells; assay type: cell-based; details: cGMP precondition
Description: as §1

HCT116 cells = assay: CPT11-induced cell death after cGMP preconditioning, HCT116 cells; assay type: cell-based, human; details: HCT116 cells preconditioned with cGMP
Description: as §1

[5] = system: irradiated intestinal tissue; details: cited from earlier work
[6] = target: ST receptors / guanylate cyclase (Homo sapiens, UniProt P25092); details: compared with native ST; cited from earlier work
Sequence of ST receptors / guanylate cyclase (P25092 24-1073): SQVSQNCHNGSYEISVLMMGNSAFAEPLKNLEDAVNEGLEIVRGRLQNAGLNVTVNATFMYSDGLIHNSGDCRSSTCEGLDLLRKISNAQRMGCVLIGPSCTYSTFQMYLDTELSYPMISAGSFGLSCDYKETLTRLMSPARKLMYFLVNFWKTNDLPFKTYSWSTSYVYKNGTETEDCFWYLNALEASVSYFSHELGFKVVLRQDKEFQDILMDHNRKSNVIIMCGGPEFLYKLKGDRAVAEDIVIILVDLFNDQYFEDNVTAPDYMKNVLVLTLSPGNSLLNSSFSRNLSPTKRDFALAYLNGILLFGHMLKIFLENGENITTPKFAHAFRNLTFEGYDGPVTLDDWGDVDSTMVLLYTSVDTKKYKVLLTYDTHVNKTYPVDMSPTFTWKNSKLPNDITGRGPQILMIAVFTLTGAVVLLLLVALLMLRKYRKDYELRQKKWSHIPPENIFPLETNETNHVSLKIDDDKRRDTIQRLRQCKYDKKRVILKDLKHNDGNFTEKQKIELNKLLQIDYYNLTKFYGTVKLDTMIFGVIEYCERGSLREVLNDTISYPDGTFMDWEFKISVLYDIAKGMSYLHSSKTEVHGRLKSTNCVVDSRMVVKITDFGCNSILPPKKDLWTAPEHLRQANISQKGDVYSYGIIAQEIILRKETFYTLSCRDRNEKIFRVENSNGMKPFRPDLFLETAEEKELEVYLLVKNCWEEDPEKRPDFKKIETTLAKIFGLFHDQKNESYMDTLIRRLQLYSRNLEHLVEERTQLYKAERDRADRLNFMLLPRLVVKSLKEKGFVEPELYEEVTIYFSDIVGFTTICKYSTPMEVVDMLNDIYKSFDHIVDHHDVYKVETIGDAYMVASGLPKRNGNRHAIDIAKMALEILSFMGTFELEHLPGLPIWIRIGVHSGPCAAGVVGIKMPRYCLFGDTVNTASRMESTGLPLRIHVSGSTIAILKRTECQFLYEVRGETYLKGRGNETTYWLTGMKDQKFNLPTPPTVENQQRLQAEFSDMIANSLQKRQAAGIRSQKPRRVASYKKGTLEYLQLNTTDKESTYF

Q: With `Nc1nc2c(ncn2[C@@H]2O[C@@H]3COP(=O)(O)O[C@H]3[C@H]2O)c(=O)[nH]1` [cGMP, cyclic GMP] as the compound, how does the IR-induced cell death [1] read?
A: The IR-induced cell death was “resisted IR-induced cell death”.

Q: What about the “protection from IR-induced cell death” value [2] of the same compound?
A: Its value is “protection by cGMP preconditioning did not occur”.

Q: And the “cell death in response to irinotecan challenge” value (human colon cells)?
A: The value was “protected cell death”.

Q: What about the “cell death induced by CPT11” value [3] of the same compound?
A: Its value is “promoted cell death”.

Q: What about the “cell death induced by CPT11” value (human liver cancer cells) of the same compound?
A: The value was “promoted cell death”.

Q: And the “cell death induced by CPT11” value [4]?
A: The value was “promoted cell death”.

Q: And the CPT11-induced cell death (HCT116 cells)?
A: Its CPT11-induced cell death is “resisted CPT11-induced cell death”.

Q: What about the “P53 dependence of protection from CPT11-induced cell death” value (HCT116 cells) of the same compound?
A: The value was “protection was P53 dependent”.

Q: And the “level of apoptosis in irradiated intestinal tissue” value ([5]; mice lacking genes encoding GCC or uroguanylin, cGMP supplementation (cGMP analog injected))?
A: The value was “ameriolated the level of apoptosis”.

Q: And the “level of apoptosis in irradiated intestinal tissue” value ([5]; wild type mice, cGMP supplementation)?
A: The value was “not in wild type mice”.

Q: For “Guanylin: 15 amino acid peptide from mammalian intestine, about 50% sequence homology to ST; native GCC agonist (SEQ ID NO:6, 54) (PGTCEICAYAACTGC; ends and bridges not checked; cysteine pairing not given here; UniProt Q02747 101-115, looked up)”, which “binding to ST receptors and activation of guanylate cyclase, level relative to native ST” value [6] is on record?
A: The value was 10- to 100 fold less than native ST.
